# US20160108414A1, “GROWTH-RELATED ENOX PROTEINS FROM PLANTS WITH YIELD ENHANCEMENT POTENTIAL, SEQUENCES AND METHODS” (Mor-NuCo Enterprises, Inc., priority 2013, published 2016)
# Numbering of substitutions follows the chain as printed. In names and notes the source's numbering stands.
# B1: G59A: ABP-20 with G59 replaced by alanine (adenine nucleotide binding motif) (protein, UniProt O04011 24-214, looked up, variant G59A)
# Auxin-binding protein ABP20: AVQDFCVADLAAPEGPAGFSCKKPASVKVNDFVFSALGIAGNTSNIIKAAVTPAFVAQFPGVNGLGISIARLDLAVGGVVPFHTHPGASEVLIVAQGTICAGFVASDNTPYLQTLEKGDIMVFPQGLLHFQVNGGEAPALAFASFGSASPGLQILDFALFKNDLPTEVIAQTTFLDAAQIKKLKGVLGGTN
# B2: H106A: ABP-20 putative copper site replacement (protein, UniProt O04011 24-214, looked up, variant H106A)
# Auxin-binding protein ABP20: B1 Auxin-binding protein ABP20 with A36G, H83A
# B3: H152A: ABP-20 putative copper site replacement (protein, UniProt O04011 24-214, looked up, variant H152A)
# Auxin-binding protein ABP20: B1 Auxin-binding protein ABP20 with A36G, H129A
# Key:
# Assay type in all cases: biochemical
# recombinant ABP-20 = molecular target: T1, recombinant ABP-20 (Prunus persica, UniProt O04011, DUP151-151); assay: NADH oxidase activity of IEF-purified recombinant ABP-20 (dNOX); conditions: for NADH oxidase activity: average of 3 determinations ± SD, None = 0.1 ± 0.08
# T1 construct: made in house; host or cells: E. coli BL21 (DE3), pET11b
# Method: (§1) Oxidation of NADH was determined spectrophotometrically from the disappearance of NADH measured at 340 nm in a reaction mixture containing 25 mM Tris-MES (pH 7.2), 100 μM GSH, 1 mM KCN to inhibit mitochondrial oxidase activity, 150 μM NADH and the enzyme at 37° C. with temperature control (±0.5° C.) and stirring. Prior to assay, 1 μM reduced glutathione was added to reduce the protein in the presence of substrate. After 10 min, 0.03% hydrogen peroxide was added to reoxidize the protein under renaturing conditions and in the presence of substrate to start the reaction. Activities were measured using paired Hitachi U3210 or paired SLM Aminco 2000 spectrophotometers both with continuous recording. Assays were run for 1 min and were repeated on the same sample at intervals of 1.5 min for the times indicated. An extinction coefficient of 6.22 cm^−1 mM^−1 was used to determine specific activity.
# Cells were centrifuged at 5,000 g for 6 min. Pellets were then resuspended in 20 mM Tris-HCl, pH 8.0, containing 0.5 mM PMSF, 1 mM benzamidine and 1 mM 6-aminocaproic and lysed by three passages through a French pressure cell (SLM Aminco) at 20,000 psi. Expression of the recombinant ABP-20 of about 20 kDa was confirmed by SDS-PAGE with silver staining. Transformed cells were stored at −80° C. in a standard glycerol stock solution. The recombinant proteins were further purified on Criterion IEF gels (Bio-Rad, Hercules, Calif.). The IEF gel was cut into seven equal segments. The pH represented by each slice was based on IEF standards (Bio-Rad). The slices were soaked in 15 mM Tris-Mes buffer, pH 7, at 4° C. for overnight with shaking. The gel-free extracts were assayed for ENOX activities as follows: […]
# [1] = system: recombinant Arabidopsis ENOX1; assay: NADH oxidase activity of IEF-purified recombinant Arabidopsis ENOX1; conditions: for NADH oxidase activity: average of 3 determinations ± SD, None = 2.7 ± 0.4; for Effect on ENOX1 activity eluted from the IEF gel: concentrations of Table 5
# Method: Cells were centrifuged at 5,000 g for 6 min. Pellets were then resuspended in 20 mM Tris-HCl, pH 8.0, containing 0.5 mM PMSF, 1 mM benzamidine and 1 mM 6-aminocaproic and lysed by three passages through a French pressure cell (SLM Aminco) at 20,000 psi. Expression of the recombinant Arabidopsis ENOX1 of about 14 kDa was confirmed by SDS-PAGE with silver staining. Transformed cells were stored at −80° C. in a standard glycerol stock solution. The Arabidopsis ENOX1 proteins were further purified on Criterion IEF gels (Bio-Rad, Hercules, Calif.). The IEF gel was cut into seven equal segments. The pH represented by each slice was based on IEF standards (Bio-Rad). The slices were soaked in 15 mM Tris-Mes buffer, pH 7, at 4° C. for overnight with shaking. The gel-free extracts were assayed for ENOX1 activity.
# as §1
# IEF purified ENOX1 was concentrated to 0.7 mg/ml by using a Centricon concentrator (Millipore Corporation, Danvers, Mass.) fitted with a 10,000 nominal molecular weight limit ultracel YM membrane. Samples (50 μl) were combined with 1 μl of trifluoroacetic acid (TFA) in the presence or absence of 15 μl 10 mM bathocuproine. After 2 h of incubation at room temperature, the samples were dialyzed (Spectra/Pro Dialysis membrane, molecular weight cut-off 6-8,000, Spectrum Laboratories (Rancho Dominguez, Calif.) against 20 mM Tris-HCl, pH 8, at 4° C. overnight.
# dNOX (ABP-20) [2] = assay: NADH oxidation of dNOX (ABP-20) site-directed mutants
# Method: as §1
# (§2) Amino acids indicated were replaced by alanines by site-directed mutagenesis according to Braman et al. (Braman, J., Papworth, C. and Greener, A. 1996. Methods Mol. Biol. 57:32-44). Numbered amino acids and nucleotide positions of splice variant products refer to numbers assigned to amino acids of the full length transcript
# dNOX (ABP-20) [3] = assay: DTDP (protein disulfide-thiol) interchange of dNOX (ABP-20) site-directed mutants
# Method: Protein disulfide-thiol interchange was determined spectrophotometrically from the increase in absorbance at 340 nm resulting from the cleavage of dithiodipyridine (DTDP (Morré, D. J., Gomez-Rey, M. L., Schramke, C., Em, O., Lawler, J., Hobeck, J. and Morré, D. M. 1999. Mol. Cell. Bochem. 200: 7-13). DTDP cleavage was buffered (50 mM Tris-MES, pH 7). The assay was preincubated (1 h at room temperature) with 0.5 μmoles 2,2′-dithiodipyridine (DTDP) in 5 μl of DMSO to react with endogenous reductants present with the plasma membranes. After 10 min, a further […] DTDP were added in 35 μl DMSO to start the reaction. The final reaction volume was […]. The reaction was monitored from the increase in absorbance at 340 nm. Specific activities were calculated using a milimolar absorption coefficient of 6.21.
# as §2
# T1 sequence (O04011 other isoform, or with tags, fused parts or gaps DUP151-151): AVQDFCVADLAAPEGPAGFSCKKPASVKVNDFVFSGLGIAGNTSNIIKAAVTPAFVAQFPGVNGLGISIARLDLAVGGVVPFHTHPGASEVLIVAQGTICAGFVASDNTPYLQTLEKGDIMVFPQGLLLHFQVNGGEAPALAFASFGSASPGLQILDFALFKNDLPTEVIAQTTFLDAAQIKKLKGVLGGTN
molecule,measurement,setting,value
"O=C(O)COc1cccc(Cl)c1Cl [2,3-dichlorophenoxyacetic acid]",Effect on activity of recombinant ABP-20,recombinant ABP-20,without effect
same,NADH oxidase activity,recombinant ABP-20; addition 1 μM,0.15 ± 0.01 µmol/min/mg
COc1cc(CNC(=O)CCCC/C=C/C(C)C)ccc1O [Capsaicin],NADH oxidase activity,[1]; addition 1 μM,3.7 ± 0.1 µmol/min/mg
same,Effect on ENOX1 activity eluted from the IEF gel,[1],no inhibition was observed
N.N.[Cl][Pt][Cl] [Cis-platinum],Effect on ENOX1 activity eluted from the IEF gel,[1],no inhibition was observed
same,NADH oxidase activity,[1]; inhibitor 100 μM,3.5 ± 0.002 µmol/min/mg
same,Effect on activity of recombinant ABP-20,recombinant ABP-20,inhibited the activity
same,NADH oxidase activity,recombinant ABP-20; addition 1 μM,0.2 ± 0.05 µmol/min/mg
COc1cccc2c1C(=O)c1c(O)c3c(c(O)c1C2=O)C[C@@](O)(C(=O)CO)C[C@@H]3O[C@H]1C[C@H](N)[C@H](O)[C@H](C)O1 [Doxorubicin],Effect on activity of recombinant ABP-20,recombinant ABP-20,inhibited the activity
same,NADH oxidase activity,recombinant ABP-20; addition 1 μM,0.2 ± 0.05 µmol/min/mg
O=C(O[C@@H]1Cc2c(O)cc(O)cc2O[C@@H]1c1cc(O)c(O)c(O)c1)c1cc(O)c(O)c(O)c1 [EGCg],Effect on ENOX1 activity eluted from the IEF gel,[1],no inhibition was observed
same,NADH oxidase activity,[1]; inhibitor 500 μM,3.9 ± 0.05 µmol/min/mg
O=C(O)c1cc(O)c(O)c(O)c1 [Gallic acid],NADH oxidase activity,[1]; inhibitor 100 μM,3.0 ± 0.5 µmol/min/mg
CC1=CC(=O)[C@@H](O)[C@]2(C)[C@H]3[C@@]4(O)OC[C@]35[C@H]([C@@H](C)[C@H]4O)[C@@H](O)C(=O)O[C@@H]5C[C@@H]12 [Glaucarubolone],Effect on activity of recombinant ABP-20,recombinant ABP-20,inhibited the activity
same,NADH oxidase activity,recombinant ABP-20; addition 1 μM,0.2 ± 0.06 µmol/min/mg
O=C(O)Cc1c[nH]c2ccccc12 [Indole-3-acetic acid],NADH oxidase activity,recombinant ABP-20; addition 1 μM,0.8 ± 0.05 µmol/min/mg
same,optimum concentration for activation,recombinant ABP-20; higher concentration less effective,about 1 μM
"CC(=O)Nc1cc(NS(=O)(=O)C(F)(F)F)c(C)cc1C [Mefluidide, N-[2,4-Dimethyl-5-[[(trifluoromethyl)sulfonyl]amino]phenyl] acetamide]",Effect on ENOX1 activity eluted from the IEF gel,[1],inhibited
same,NADH oxidase activity,[1]; inhibitor 100 μM,1.8 ± 0.15 µmol/min/mg
O=C(O)c1cc[c]([Hg][Cl])cc1 [PCMB],Effect on activity of recombinant ABP-20,recombinant ABP-20,inhibited
same,NADH oxidase activity,recombinant ABP-20; addition 100 μM,0.1 ± 0.05 µmol/min/mg
O=S(=O)(O)c1cc[c]([Hg][Cl])cc1 [PCMS],Effect on activity of recombinant ABP-20,recombinant ABP-20,inhibited
same,NADH oxidase activity,recombinant ABP-20; addition 100 μM,0.3 ± 0.2 µmol/min/mg
CC[C@@H](C)C(=O)O[C@H]1C(=O)O[C@@H]2C[C@H]3C(C)=CC(=O)[C@@H](O)[C@]3(C)[C@H]3[C@@H](O)[C@H](O)[C@]4(C)OC[C@]32[C@@H]14 [Simalikalactone D],NADH oxidase activity,[1]; addition 1 μM,0.9 ± 0.1 µmol/min/mg
same,Effect on ENOX1 activity eluted from the IEF gel,[1],inhibited
same,Effect on activity of recombinant ABP-20,recombinant ABP-20,without effect
same,NADH oxidase activity,recombinant ABP-20; addition 1 μM,0.65 ± 0.07 µmol/min/mg
CCS(=O)(=O)c1nc2ccccn2c1S(=O)(=O)NC(=O)Nc1nc(OC)cc(OC)n1 [Sulfonsulfuron],Effect on ENOX1 activity eluted from the IEF gel,[1],inhibited
same,NADH oxidase activity,[1]; inhibitor 100 μM,1.2 ± 0.5 µmol/min/mg
OCCc1ccc(O)cc1 [Tyrosol],NADH oxidase activity,[1]; inhibitor 10 μM,3.4 ± 0.2 µmol/min/mg
Cc1cc(-c2ccccc2)c2ccc3c(-c4ccccc4)cc(C)nc3c2n1 [bathocuproine],"NADH oxidase activity, 24 min period","[1]; assayed with TFA and bathocuproine, FIG. 12",much reduced
same,dNOX activity after unfolding,"recombinant ABP-20; trifluoroacetic acid plus bathocuproine, FIG. 30B",activity was lost
"[2H]O[2H] [heavy water, Deuterium Oxide]",Period length of ENOX1 activity,"[1]; assayed in heavy water, normal period 24 min",about 30 min
COc1ccc2[nH]cc(CCNC(C)=O)c2c1 [melatonin],New maximum after melatonin addition (phasing of 24 min period),[1]; 1 μM melatonin,24 min
Trans-platinum,Effect on activity of recombinant ABP-20,recombinant ABP-20,without effect
same,NADH oxidase activity,recombinant ABP-20; addition 1 μM,0.7 ± 0.1 µmol/min/mg
B1,Effect of replacement on NADH oxidation,dNOX (ABP-20) [2],largely eliminated NADH oxidation
same,NADH Oxidation,dNOX (ABP-20) [2],0.06 ± 0.02 μmoles/min/mg protein
same,DTDP Interchange,dNOX (ABP-20) [3],0.07 ± 0.02 μmoles/min/mg protein
same,Effect of replacement on disulfide-thiol interchange,dNOX (ABP-20) [3],without effect
B2,Effect of replacement on NADH oxidation,dNOX (ABP-20) [2],near background
same,NADH Oxidation,dNOX (ABP-20) [2],0.04 ± 0.01 μmoles/min/mg protein
same,DTDP Interchange,dNOX (ABP-20) [3],0.02 ± 0.01 μmoles/min/mg protein
same,Effect of replacement on disulfide-thiol interchange,dNOX (ABP-20) [3],near background
B3,Effect of replacement on NADH oxidation,dNOX (ABP-20) [2],near background
same,NADH Oxidation,dNOX (ABP-20) [2],0.03 ± 0.01 μmoles/min/mg protein
same,DTDP Interchange,dNOX (ABP-20) [3],0.02 ± 0.01 μmoles/min/mg protein
same,Effect of replacement on disulfide-thiol interchange,dNOX (ABP-20) [3],near background
